biological target: PD-L1 His protein / PD-1 Fc protein (Homo sapiens, UniProt Q9NZQ7); assay: HTRF Assay (PD-1/PD-L1 interaction); type: binding; settings: PD-L1 His 6 nM, PD-1 Fc 6 nM
Method in brief: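 Compounds tested from 20 μM down to 0.001 μM (3-fold) against 6 nM PD-L1 His and 6 nM PD-1 Fc, 15 min room temperature incubation. Detection after 1 h at room temperature with Tb cryptate anti-6HIS and XL665 anti-human IgG reagents (mixture at 0.35 nM and 6.7 nM), HTRF signal.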

PD-L1 His protein / PD-1 Fc protein, sequence (Q9NZQ7 19-238 limits assumed): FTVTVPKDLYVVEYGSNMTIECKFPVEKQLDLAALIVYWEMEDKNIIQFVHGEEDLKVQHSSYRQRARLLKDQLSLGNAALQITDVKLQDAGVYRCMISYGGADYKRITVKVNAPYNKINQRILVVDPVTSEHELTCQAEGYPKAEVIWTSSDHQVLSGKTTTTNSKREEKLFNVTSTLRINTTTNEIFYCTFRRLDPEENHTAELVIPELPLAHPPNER

In order of rising IC50:
1. COC(=O)C1CN(Cc2cnc3cc(-c4cccc(-c5cccc(-c6ccc(CNC[C@@H]7CCC(=O)N7)c(OC)n6)c5Cl)c4Cl)cc(C)n3c2=O)C1 [Example 291, (S)-Methyl 1-((8-(2,2′-dichloro-3′-(6-methoxy-5-((((5-oxopyrrolidin-2-yl)methyl)amino)methyl)pyridin-2-yl)-[1,1′-biphenyl]-3-yl)-6-methyl-4-oxo-4H-pyrido[1,2-a]pyrimidin-3-yl)methyl)azetidine-3-carboxylate]  0.1 nM
2. COc1nc(-c2cccc(-c3cccc(-c4cc5c(cn4)CN(CCNC[C@@H]4CCC(=O)N4)C5=O)c3Cl)c2Cl)ccc1CNC[C@@H]1CCC(=O)N1 [Example 454, 6-(2,2′-dichloro-3′-(6-methoxy-5-(((((S)-5-oxopyrrolidin-2-yl)methyl)amino)methyl)pyridin-2-yl)-[1,1′-biphenyl]-3-yl)-2-(2-((((S)-5-oxopyrrolidin-2-yl)methyl)amino)ethyl)-2,3-dihydro-1H-pyrrolo[3,4-c]pyridin-1-one]  0.1 nM
3. COc1nc(-c2cccc(-c3cccc(-c4ccn5c(=O)c(CNC[C@H]6C[C@H]6CO)cnc5c4)c3Cl)c2Cl)ccc1CNC[C@@H]1CCC(=O)N1 (racemic) [Example 225, 8-(2,2′-dichloro-3′-(6-methoxy-5-(((((S)-5-oxopyrrolidin-2-yl)methyl)-amino)-methyl)-pyridin-2-yl)-[1,1′-biphenyl]-3-yl)-3-(((((1S,2R)-2-(hydroxymethyl)-cyclopropyl)methyl)amino)methyl)-4H-pyrido[1,2-a]pyrimidin-4-one]  0.2 nM
4. COc1nc(-c2cccc(-c3cccc(-c4ccn5c(=O)c(CN6C[C@@H](O)C[C@@H]6C(=O)O)cnc5c4)c3Cl)c2Cl)ccc1CNC[C@@H]1CCC(=O)N1 [Example 149, (2R,4S)-1-((8-(2,2′-Dichloro-3′-(6-methoxy-5-(((((S)-5-oxopyrrolidin-2-yl)methyl)amino)methyl)pyridin-2-yl)-[1,1′-biphenyl]-3-yl)-4-oxo-4H-pyrido[1,2-a]pyrimidin-3-yl)methyl)-4-hydroxypyrrolidine-2-carboxylic acid]  0.3 nM
5. COc1nc(-c2cccc(-c3cccc(-c4ccc(CN(C=O)C[C@@H]5CCC(=O)N5)c(OC)n4)c3Cl)c2Cl)ccc1CNC[C@@H]1CCC(=O)N1 [Example 330, N-((6-(2,2′-Dichloro-3′-(6-methoxy-5-(((((S)-5-oxopyrrolidin-2-yl)methyl)amino)methyl)pyridin-2-yl)-[1,1′-biphenyl]-3-yl)-2-methoxypyridin-3-yl)methyl)-N—(((S)-5-oxopyrrolidin-2-yl)methyl)formamide]  0.8 nM
6. COc1nc(-c2cccc(-c3cccc(-c4ccc5c(n4)N(C)CCC5NC[C@@H]4CCC(=O)N4)c3Cl)c2Cl)ccc1CNC[C@@H]1CCC(=O)N1 (single isomer, unassigned) [Example 53]  1.7 nM
7. COc1nc(-c2cccc(-c3cccc(-c4ccn5c(=O)c(CNC[C@@H]6CCC(=O)N6)cnc5c4)c3Cl)c2Cl)cnc1N1CC(N)C1 [Example 71, (S)-8-(3′-(5-(3-Aminoazetidin-1-yl)-6-methoxypyrazin-2-yl)-2,2′-dichloro-[1,1′-biphenyl]-3-yl)-3-((((5-oxopyrrolidin-2-yl)methyl)amino)methyl)-4H-pyrido[1,2-a]pyrimidin-4-one]  2 nM
8. Cc1nc(-c2cccc(-c3cccc(-c4ccn5c(=O)c(CNC[C@@H]6CCC(=O)N6)cnc5c4)c3C)c2Cl)ccc1CNC[C@@H]1CCC(=O)N1 [Example 79, 8-(2′-Chloro-2-methyl-3′-(6-methyl-5-(((((S)-5-oxopyrrolidin-2-yl)methyl)amino)methyl)pyridin-2-yl)-[1,1′-biphenyl]-3-yl)-3-(((((S)-5-oxopyrrolidin-2-yl)methyl)amino)methyl)-4H-pyrido[1,2-a]pyrimidin-4-one]  2.8 nM
9. CNc1nc(-c2cccc(-c3cccc(-c4ccn5c(=O)c(CNC[C@@H]6CCC(=O)N6)cnc5c4)c3Cl)c2Cl)ccc1CNC[C@@H]1CCC(=O)N1 [Example 89, 8-(2,2′-Dichloro-3′-(6-(methylamino)-5-(((((S)-5-oxopyrrolidin-2-yl)methyl)amino)methyl)pyridin-2-yl)-[1,1′-biphenyl]-3-yl)-3-(((((S)-5-oxopyrrolidin-2-yl)methyl)amino)methyl)-4H-pyrido[1,2-a]pyrimidin-4-one]  3.5 nM
10. O=C1CC[C@@H](CNCc2cnc3cc(-c4cccc(-c5cccc(-c6cnc7c(CNC[C@@H]8CCC(=O)N8)cnn7c6)c5Cl)c4Cl)ccn3c2=O)N1 [Example 381, 8-(2,2′-dichloro-3′-(3-(((((S)-5-oxopyrrolidin-2-yl)methyl)amino)methyl)pyrazolo[1,5-a]pyrimidin-6-yl)-[1,1′-biphenyl]-3-yl)-3-(((((S)-5-oxopyrrolidin-2-yl)methyl)amino)methyl)-4H-pyrido[1,2-a]pyrimidin-4-one]  5.9 nM
11. COc1nc(-c2cccc(-c3cccc(-c4cc5c(=O)n(C)c(CN(C)CCO)nn5c4)c3Cl)c2Cl)ccc1CNC[C@@H]1CCC(=O)N1 [Example 395, (S)-6-(2,2′-Dichloro-3′-(6-methoxy-5-((((5-oxopyrrolidin-2-yl)methyl)amino)methyl)pyridin-2-yl)-[1,1′-biphenyl]-3-yl)-2-(((2-hydroxyethyl)(methyl)amino)methyl)-3-methylpyrrolo[2,1-f][1,2,4]triazin-4(3H)-one]  6.7 nM
12. COc1nc(-c2cccc(-c3cccc(-c4cc5c(=O)n(C)c(CN6CC7(CC(O)C7)C6)nn5c4)c3Cl)c2Cl)ccc1CNC[C@@H]1CCC(=O)N1 [Example 468, 6-[2-Chloro-3-[2-chloro-3-[6-methoxy-5-[[[(2S)-5-oxopyrrolidin-2-yl]methylamino]methyl]-2-pyridyl]phenyl]phenyl]-2-[(6-hydroxy-2-azaspiro[3.3]heptan-2-yl)methyl]-3-methyl-pyrrolo[2,1-f][1,2,4]triazin-4-one]  7 nM
13. COc1nc(-c2cccc(-c3cccc(-c4ccc5c(OC)c(CNC[C@H](C)O)cc(Cl)c5n4)c3Cl)c2Cl)ccc1CNC[C@@H]1CCC(=O)N1 [Example 367, (S)-5-((((6-(2,2′-Dichloro-3′-(8-chloro-6-((((S)-2-hydroxypropyl)amino)methyl)-5-methoxyquinolin-2-yl)-[1,1′-biphenyl]-3-yl)-2-methoxypyridin-3-yl)methyl)amino)methyl)pyrrolidin-2-one]  21 nM
14. COC(=O)CNCc1nn2cc(-c3cccc(-c4cccc(-c5ccc(CNC[C@@H]6CCC(=O)N6)c(OC)n5)c4Cl)c3Cl)cc2c(=O)n1C [Example 482, Methyl 2-[[6-[2-chloro-3-[2-chloro-3-[6-methoxy-5-[[[(2S)-5-oxopyrrolidin-2-yl]methylamino]methyl]-2-pyridyl]phenyl]phenyl]-3-methyl-4-oxo-pyrrolo[2,1-f][1,2,4]triazin-2-yl]methylamino]acetate]  28 nM
15. COc1nc(-c2cccc(-c3cccc(-c4cc5c(=O)n(C)c(CNCCC(F)(F)F)nn5c4)c3Cl)c2Cl)ccc1CNC[C@@H]1CCC(=O)N1 [Example 406, (S)-6-(2,2′-Dichloro-3′-(6-methoxy-5-((((5-oxopyrrolidin-2-yl)methyl)amino)methyl)pyridin-2-yl)-[1,1′-biphenyl]-3-yl)-3-methyl-2-(((3,3,3-trifluoropropyl)amino)methyl)pyrrolo[2,1-f][1,2,4]triazin-4(3H)-one]  33 nM
16. COc1nc(-c2cccc(-c3cccc(-c4ccn5c(=O)c(CNC[C@@H]6CCCO6)cnc5c4)c3Cl)c2Cl)ccc1CNC[C@@H]1CCC(=O)N1 [Example 307, 8-[2-Chloro-3-[2-chloro-3-[6-methoxy-5-[[[(2S)-5-oxopyrrolidin-2-yl]methylamino]methyl]-2-pyridyl]phenyl]phenyl]-3-[[[(2S)-tetrahydrofuran-2-yl]methylamino]methyl]pyrido[1,2-a]pyrimidin-4-one]  37 nM
17. COc1nc(-c2cccc(-c3cccc(-c4ccc5nc(CNC[C@@H]6CCC(=O)N6)cn5c4)c3Cl)c2Cl)ccc1CNC[C@@H]1CCC(=O)N1 [Example 356, (5S)-5-[[[6-[2-Chloro-3-[2-chloro-3-[2-[[[(2S)-5-oxopyrrolidin-2-yl]methylamino]methyl]imidazo[1,2-a]pyridin-6-yl]phenyl]phenyl]-2-methoxy-3-pyridyl]methylamino]methyl]pyrrolidin-2-one]  86 nM
18. COc1c(CNC[C@@H]2CCC(=O)N2)cc(Cl)c2nc(-c3cccc(-c4cccc(-c5ccn6c(=O)c(CNC[C@@H]7CCC(=O)N7)cnc6c5)c4Cl)c3Cl)ccc12 [Example 203, 8-[2-chloro-3-[2-Chloro-3-[8-chloro-5-methoxy-6-[[[(2S)-5-oxopyrrolidin-2-yl]methylamino]methyl]-2-quinolyl]phenyl]phenyl]-3-[[[(2S)-5-oxopyrrolidin-2-yl]methylamino]methyl] pyrido[1,2-a]pyrimidin-4-one]  150 nM
19. COc1nc(-c2cccc(-c3cccc(-c4cc5c(=O)n(C)c(CNC[C@@H]6CCO6)nn5c4)c3Cl)c2Cl)ccc1CNC[C@@H]1CCC(=O)N1 [Example 472, 6-[2-Chloro-3-[2-chloro-3-[6-methoxy-5-[[[(2S)-5-oxopyrrolidin-2-yl]methylamino]methyl]-2-pyridyl]phenyl]phenyl]-3-methyl-2-[[[(2S)-oxetan-2-yl]methylamino]methyl]pyrrolo[2,1-f][1,2,4]triazin-4-one]  400 nM
20. COc1nc(-c2cccc(-c3cccc(-c4cc5c(=O)n(C)c(CN[C@H]6C[C@](C)(O)C6)nn5c4)c3Cl)c2Cl)ccc1CNC[C@@H]1CCC(=O)N1 [Example 332, 6-(2,2′-Dichloro-3′-(6-methoxy-5-(((((S)-5-oxopyrrolidin-2-yl)methyl)amino)methyl)pyridin-2-yl)-[1,1′-biphenyl]-3-yl)-2-((((1r,3r)-3-hydroxy-3-methylcyclobutyl)amino)methyl)-3-methylpyrrolo[2,1-f][1,2,4]triazin-4(3H)-one]  500 nM

Source: US20230143612A1 (Arbutus Biopharma Corporation, priority 2020, published 2023)
